In ChEMBL document CHEMBL1795278, “Synthesis and evaluation of fluorescent heterocyclic aminoadamantanes as multifunctional neuroprotective agents” (Bioorg Med Chem, 2011):

Experiments:
[1] = Antagonist activity at VGCC in Sprague-Dawley rat brain synaptoneurosomes assessed as inhibition of Kcl-induced calcium flux at 100 uM after 5 mins using FURA-2AM by fluorescent spectrometer analysis relative to control; assay type: functional
[2] = system: Radical scavenging activity; assay: Antioxidant activity assessed as inhibition of DPPH free radicals at 0.1 mM after 30 mins by UV-visible spectrophotometer analysis relative to control; assay type: functional
[3] = system: Radical scavenging activity; assay: Antioxidant activity assessed as inhibition of DPPH free radicals after 30 mins by UV-visible spectrophotometer analysis relative to control; assay type: functional
[4] = Antioxidant activity assessed as inhibition of ABTS free radicals at 1 mM after 30 mins by UV-visible spectrophotometer analysis relative to control; assay type: functional
[5] = Antioxidant activity assessed as inhibition of ABTS free radicals at 0.01 mM after 30 mins by UV-visible spectrophotometer analysis relative to control; assay type: functional
[6] = molecular target: Nitric oxide synthase 1 (Rattus norvegicus, UniProt P29476); assay: Inhibition of nNOS in Sprague-Dawley rat brain homogenates assessed as conversion of oxyhemoglobin to methemoglobin measured for 10 mins by UV-visible spectrophotometer analysis
Nitric oxide synthase 1, sequence (P29476 whole entry): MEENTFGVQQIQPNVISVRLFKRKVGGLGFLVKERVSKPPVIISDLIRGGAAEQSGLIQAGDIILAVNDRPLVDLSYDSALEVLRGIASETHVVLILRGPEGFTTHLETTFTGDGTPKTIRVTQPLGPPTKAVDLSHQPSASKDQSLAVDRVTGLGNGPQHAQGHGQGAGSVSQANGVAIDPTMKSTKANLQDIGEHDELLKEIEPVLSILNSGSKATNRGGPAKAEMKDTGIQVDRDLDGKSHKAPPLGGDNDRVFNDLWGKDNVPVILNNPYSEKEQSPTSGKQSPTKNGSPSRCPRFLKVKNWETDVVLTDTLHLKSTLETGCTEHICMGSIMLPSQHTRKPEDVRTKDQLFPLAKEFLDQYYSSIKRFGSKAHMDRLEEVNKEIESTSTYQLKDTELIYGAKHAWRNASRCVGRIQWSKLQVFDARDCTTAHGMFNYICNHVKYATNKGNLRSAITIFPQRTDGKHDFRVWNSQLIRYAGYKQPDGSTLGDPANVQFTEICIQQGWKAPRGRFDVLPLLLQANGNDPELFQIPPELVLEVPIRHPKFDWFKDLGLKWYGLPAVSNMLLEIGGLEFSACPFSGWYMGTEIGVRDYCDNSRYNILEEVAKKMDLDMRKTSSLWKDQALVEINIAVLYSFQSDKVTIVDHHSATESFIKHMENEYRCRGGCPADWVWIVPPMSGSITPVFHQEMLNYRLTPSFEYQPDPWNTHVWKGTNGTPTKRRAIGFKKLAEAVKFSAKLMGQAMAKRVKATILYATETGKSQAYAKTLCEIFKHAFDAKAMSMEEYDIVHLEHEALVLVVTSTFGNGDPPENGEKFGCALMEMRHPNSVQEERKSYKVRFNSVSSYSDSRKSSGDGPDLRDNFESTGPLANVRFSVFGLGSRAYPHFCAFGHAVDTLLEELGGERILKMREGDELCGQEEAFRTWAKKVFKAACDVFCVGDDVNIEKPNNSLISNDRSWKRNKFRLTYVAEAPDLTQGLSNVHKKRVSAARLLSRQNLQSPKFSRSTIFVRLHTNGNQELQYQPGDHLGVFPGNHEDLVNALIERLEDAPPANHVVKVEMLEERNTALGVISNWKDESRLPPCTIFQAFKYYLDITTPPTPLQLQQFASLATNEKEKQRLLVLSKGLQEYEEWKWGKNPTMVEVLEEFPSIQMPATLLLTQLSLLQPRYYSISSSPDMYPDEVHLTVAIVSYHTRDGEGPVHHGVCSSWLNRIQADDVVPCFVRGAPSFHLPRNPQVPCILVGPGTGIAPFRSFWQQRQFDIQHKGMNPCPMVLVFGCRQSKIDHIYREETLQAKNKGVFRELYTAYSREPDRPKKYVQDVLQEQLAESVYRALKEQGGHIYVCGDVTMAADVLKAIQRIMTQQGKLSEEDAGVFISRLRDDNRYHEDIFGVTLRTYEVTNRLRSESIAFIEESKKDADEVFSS

[7] = Antioxidant activity assessed as inhibition of ABTS free radicals at 0.1 mM after 30 mins by UV-visible spectrophotometer analysis relative to control; assay type: functional
[8] = system: Radical scavenging activity; assay: Antioxidant activity assessed as inhibition of DPPH free radicals at 1 mM after 30 mins by UV-visible spectrophotometer analysis relative to control; assay type: functional
[9] = Antioxidant activity assessed as inhibition of ABTS free radicals after 30 mins by UV-visible spectrophotometer analysis relative to control; assay type: functional
[10] = Antagonist activity at NMDAR in Sprague-Dawley rat brain synaptoneurosomes assessed as inhibition of NMDA/glycine-induced calcium flux at 100 uM after 5 mins using FURA-2AM by fluorescent spectrometer analysis relative to control; assay type: functional
[11] = system: Radical scavenging activity; assay: Antioxidant activity assessed as inhibition of DPPH free radicals at 0.01 mM after 30 mins by UV-visible spectrophotometer analysis relative to control; assay type: functional

| Compound | inhibition (INH) [1] [%] | inhibition [2] [%] | inhibition [3] | inhibition [4] [%] | inhibition [5] [%] | IC50 [6] | inhibition [7] [%] | inhibition [8] [%] | inhibition [9] | inhibition (INH) [10] [%] | inhibition [11] [%] | IC50 ([6]; read-out: IC50) [nM] |
| --- | --- | --- | --- | --- | --- | --- | --- | --- | --- | --- | --- | --- |
| COCCOC(=O)C1=C(C)NC(C)=C(C(=O)OC(C)C)C1c1cccc([N+](=O)[O-])c1 (stereo not given) [NIMODIPINE] | 12.29 | – | – | – | – | – | – | – | – | – | – | – |
| O=[N+]([O-])c1ccc(NC23CC4CC(CC(C4)C2)C3)c([N+](=O)[O-])c1 | 89.14 | 36.8 | Dose-dependent effect | 15.7 | 8.21 | Not Active | 9.73 | 37 | Dose-dependent effect | 80.75 | 32.1 | – |
| O=C(NC12CC3CC(CC(C3)C1)C2)c1n[nH]c2ccccc12 | 93.43 | 30.1 | Dose-dependent effect | 39.9 | 12.4 | – | 21.7 | 32.9 | Dose-dependent effect | 83 | 28.7 | – |
| CNc1ccccc1C(=O)NC12CC3CC(CC(C3)C1)C2 | 93.2 | 42.8 | Dose-dependent effect | 50.5 | 10.7 | – | 24.3 | 44 | Dose-dependent effect | 96.66 | 42.7 | – |
| NC12CC3CC(CC(C3)C1)C2 [AMANTADINE] | 86.13 | 2.11 | Dose-dependent effect | 1.62 | 0.49 | Not Active | 1.34 | 2.32 | Dose-dependent effect | 83.1 | 0.55 | – |
| O=C(NC12CC3CC(CC(C3)C1)C2)c1cc2ccccc2oc1=O | 75.35 | 69.8 | Dose-dependent effect | 93.3 | 87.5 | – | 91.8 | 91.7 | Dose-dependent effect | 79.71 | 31.8 | 850 |
| CN(C)c1cccc2c(S(=O)(=O)NC34CC5CC(CC(C5)C3)C4)cccc12 | 44.77 | 38.1 | Dose-dependent effect | 41.6 | 8.11 | – | 22.4 | 40.9 | Dose-dependent effect | 78.05 | 38 | 410 |
| Cc1c(C)c2c(c(C)c1O)CCC(C)(C(=O)O)O2 (stereo not given) | – | 74.6 | Dose-dependent effect | 88.5 | 47.6 | – | 62.8 | 95.1 | Dose-dependent effect | – | 45.8 | – |
| c1ccc(CNC23OC4C5C6CC(C7C6C4C72)C53)cc1 (stereo not given) | 70.12 | 5.99 | Dose-dependent effect | 8.88 | 2.44 | Not Active | 7.33 | 9.98 | Dose-dependent effect | 86.63 | 0.2 | – |
| N#Cc1c2ccccc2cn1C12CC3CC(CC(C3)C1)C2 | 54.24 | 27.8 | Dose-dependent effect | 13.5 | 9.98 | – | 13.2 | 32.7 | Dose-dependent effect | 84.01 | 27.4 | – |
| N=C(N)NN [PIMAGEDINE] | – | – | – | – | – | – | – | – | – | – | – | 19400 |
